Measurements published in patent US12102640B2, “Use of dopamine and serotonin receptor antagonists for treatment in a subject with retinal degeneration” (United States Government as represented by the Department …, priority 2015, dated 2024).
Entries after “also recorded” stand apart in the source; their conditions may differ.

What was measured:
P23H rat RGCs = experiment: Light sensitivity (intensity-response functions) of RGCs in isolated P23H rat retina, extracellular recording; type: cell-based; details: for number of RGCs tested whose sensitivity was increased / average lowering of light intensity (increase in light sensitivity): P23H rat RGCs; for number of RGCs tested whose sensitivity was increased: one cell per retina; for average lowering of light intensity (increase in light sensitivity): difference of means before vs during drug; for light intensity at which the pre-drug half-maximum response was obtained in the presence of the drug, average: mean±SD of P23H rat RGCs (n=4-12), 100 ms flashes, concentration not given; for increase in light sensitivity of the representative RGC / light intensity that evoked the pre-drug half-maximum response with application of the drug, representative RGC: single representative P23H rat RGC; for light intensity that evoked the pre-drug half-maximum response with application of the drug, representative RGC: bath applied ~10 min, relative to 8.5×10^17 photons/cm^2/s
Procedure: P23H-line 1 homozygous rats (age range 22-37 weeks) were used. Breeding pairs of P23H-line 1 homozygous rats were generously donated by Dr. Matthew LaVail (University of California San Francisco, CA). The room light was kept on a 12 hr light/dark cycle using standard fluorescent lighting. During the light cycle, the illumination at the level of the cages was 100-200 lux.
(§1) On the day of an experiment, a rat was euthanized with sodium pentobarbital (150 mg/kg, i.p.), and the eyes were removed and hemisected under normal room light. After removal of the vitreous humour from each eye, one eyecup was transferred to a holding vessel containing bicarbonate-buffered Ames medium (Sigma-Aldrich), which was continuously gassed at room temperature with 5% CO2/95% O2. The retina of the other eyecup was gently peeled from the retinal pigment epithelium/choroid and trimmed into a square of ˜12 mm^2. The retina was then placed photoreceptor side down in a small volume (0.1 ml) chamber. The chamber was mounted on a fixed-stage upright microscope (Nikon Eclipse E600FN), and the retina superfused at 1.5 ml/min with bicarbonate-buffered Ames medium supplemented with 2 mg/ml D-(+) glucose and equilibrated with 5% CO2/95% O2. An in-line heating device (Warner Instruments) was used to maintain recording temperature at 35-36° C. The retina of the other eyecup was used later in the day.
(§2) Electrical Recording: Action potentials (spikes) were recorded extracellularly from individual RGCs. With the aid of red light (>630 nm) that was delivered from below the chamber, the tip of a glass insulated platinum/tungsten microelectrode (0.6-1.0 MΩ impedance; Thomas Recording GmbH, Germany) was visually advanced to the retinal surface with a motor-driven micromanipulator. Extracellular potentials from RGCs were amplified and bandpass filtered at 100 to 5000 Hz by a differential amplifier (Xcell-3; FHC, Bowdoin, ME). […] Spikes from single RGCs were converted to standard transistor to transistor logic (TTL) pulses with a time-amplitude window discriminator (APM Neural Spike Discriminator, FHC). A laboratory data acquisition system (1401 Processor and Spike2 software; Cambridge Electronic Design Ltd., Cambridge, UK) was used to digitize the TTL pulses and raw spike train data.
(§3) Light from a mercury arc lamp illuminated an aperture that was focused on the retina from above, through the 4× objective of the microscope. The image produced on the retina was either a 250-μm or 1.5-mm diameter spot, which was centered on the recorded RGC. In the light path was a 545 nm interference filter (bandwidth, 30 nm). The intensity of the unattenuated light stimulus on the retina, measured with a spectroradiometer (ILT900-R, International Light Technologies), was 8.5×10^17 photons/cm^2/s. Light intensities are expressed herein in log units relative to the unattenuated light intensity. An electromechanical shutter (Uniblitz, Rochester, NY) was used to control the stimulus duration, which was set to 100 ms in constructing intensity response curves. During recordings from RGCs, light flashes were presented with interstimulus intervals of 3-15 s (depending upon the duration and intensity of the light stimulus) to avoid any adapting effect of the previous flash. All experiments were performed in a dimly lighted room (10 lux).
(−)-Sulpiride was purchased from Tocris Bioscience (Minneapolis, MN). Sulpiride was dissolved in a small amount of dimethylsulphoxide (DMSO) and diluted in physiological saline. The drug solution was applied to the bathing solution using a calibrated syringe pump (Razel Scientific Instruments). Drug was bath applied for ˜10 min to ensure stable responses before effects were examined. Only one cell was studied in each retina to avoid possible residual drug effects.
Intensity-response curves were generated from the responses of RGCs to 100 ms flashes of light. The light stimulus was either a 250-μm or 1.5-mm diameter spot. […]

[1] = test system: D2 and D3 receptors over D4 receptors; details: compared with sulpiride; cited from earlier work
[2] = test system: long-latency ON-center P23H rat RGC; experiment: Light responses of long-latency ON-center RGCs to a 250-μm spot (spike rasters, PSTHs); type: cell-based; details: sulpiride 12 µM, clozapine 5 μM, aripiprazole 5 μM, eticlopride 1 µM, MDL-100907 640 nM
Procedure: as §1, §2, §3
(−)-Sulpiride and clozapine were purchased from Tocris Bioscience (Minneapolis, MN). Aripiprazole was purchased from Sigma-Aldrich (St. Louis, MO). Sulpiride and clozapine were dissolved in a small amount of dimethylsulphoxide (DMSO) and diluted in physiological saline. Aripiprazole was dissolved in a small amount of 1 mM HCl and diluted in physiological saline. As in Example 1, the drug solutions were applied to the bathing solution using calibrated syringe pumps (Razel Scientific Instruments). Drugs were bath applied for ˜10 min to ensure stable responses before effects were examined. Only one cell was studied in each retina to avoid possible residual drug effects. P23H rat RGCs were identified as either ON-center or OFF-center cells from their responses to a 500-700 ms flash of a small (250-μm diameter) spot of light centered over the receptive field. ON-center cells elicit an excitatory response to the onset but not to the offset of the spot of light, whereas OFF-center cells elicit an excitatory response to the offset of the spot of light. […]

OFF-center P23H rat RGC = experiment: Light responses of OFF-center RGCs that show a long-latency ON response; type: cell-based; details: 250-μm spot; sulpiride 9 µM, aripiprazole 5 µM
Procedure: as §1, §2
as §3, with “During recordings from RGCs, light flashes were presented with interstimulus intervals of 3-15 s (depending upon the duration and intensity of the light stimulus) to avoid any adapting effect of the previous flash. All experiments were performed in a dimly lighted room (10 lux).” left out

[3] = sulpiride 13 µM, L-745,870 1 µM
[4] = eticlopride 1 μM, 6 P23H rat RGCs
[5] = pooled data of MDL-100907 and SB-242084, 6 P23H rat RGCs

SMILES	number of RGCs tested whose sensitivity was increased (P23H rat RGCs)	average lowering of light intensity (increase in light sensitivity) (P23H rat RGCs) [log unit]	light intensity at which the pre-drug half-maximum response was obtained in the presence of the drug, average (P23H rat RGCs) [log units attenuation]	effect on the OFF response [2]	effect on the long-latency ON response [2]	other results
Cl.Cl.Cl.Clc1ccc(N2CCN(Cc3c[nH]c4ncccc34)CC2)cc1 [L-745,870, 3-(4-[4-Chlorophenyl]piperazin-1-yl)-methyl-1-H-pyrrolo[2,3-b]pyridinetrihydrochloride]	11 of the 12	0.21	−3.31±0.54	–	–	increase in light sensitivity of the representative RGC (P23H rat RGCs; [3]): 0.34 log unit; light intensity that evoked the pre-drug half-maximum response with application of the drug, representative RGC (P23H rat RGCs; [3]): −3.69 log units attenuation
CCc1cc(Cl)c(OC)c(C(=O)NC[C@@H]2CCCN2CC)c1O [eticlopride, (−)-Eticlopride]	–	–	–	appeared; also recorded: brought out an OFF response	abolished; also recorded: eliminated	selectivity for D2 and D3 receptors over D4 receptors [1]: greater selectivity than sulpiride; average increase in light sensitivity (P23H rat RGCs; [4]): 0.31 log unit; average light sensitivity during drug (P23H rat RGCs; [4]): −3.07 log units; cells showing an increase in light sensitivity (P23H rat RGCs; [4]): All cells
CCN1CCC[C@H]1CNC(=O)c1cc(S(N)(=O)=O)ccc1OC [sulpiride, (−)-Sulpiride]	8 of the 9	0.29	−3.17±0.27	appeared; also recorded: brought out an OFF response	abolished; also recorded: eliminated	effect on the OFF response (OFF-center P23H rat RGC): remained intact; also recorded: spared; effect on the delayed (long-latency) ON response (OFF-center P23H rat RGC): reduced; also recorded: diminished; shift of the intensity-response curve (P23H rat RGCs; single P23H rat RGC, sulpiride 13 µM, L-745,870 1 µM): to the left; increase in light sensitivity of the representative RGC (P23H rat RGCs; [3]): 0.44 log unit; light intensity that evoked the pre-drug half-maximum response with application of the drug, representative RGC (P23H rat RGCs; [3]): −3.47 log units attenuation
O=C1CCc2ccc(OCCCCN3CCN(c4cccc(Cl)c4Cl)CC3)cc2N1 [aripiprazole]	–	0.27	−3.54±0.36	appeared; also recorded: brought out an OFF response	still present; also recorded: did not eliminate	effect on the OFF response (OFF-center P23H rat RGC): remained intact; also recorded: spared; effect on the delayed (long-latency) ON response (OFF-center P23H rat RGC): reduced; also recorded: eliminated
COc1cccc([C@H](O)C2CCN(CCc3ccc(F)cc3)CC2)c1OC [MDL-100907]	–	–	–	appeared; also recorded: brought out an OFF response	abolished; also recorded: eliminated	average increase in sensitivity, pooled 5-HT2 antagonists (P23H rat RGCs; [5]): 0.25 log unit; average light sensitivity during drug, pooled 5-HT2 antagonists (P23H rat RGCs; [5]): −3.25 log units
O=C(CCCN1CCC(O)(c2ccc(Cl)cc2)CC1)c1ccc(F)cc1 [haloperidol]	all 4	0.28	−3.39±0.43	–	–	–
CN1CCN(C2=Nc3cc(Cl)ccc3Nc3ccccc32)CC1 [clozapine]	–	0.30	−3.56±0.55	–	–	–
CCN1CCCC1CNC(=O)c1cc(S(=O)(=O)CC)c(N)cc1OC (stereo not drawn) [amisulpride]	all 5	0.39	−3.67±0.30	–	–	–
